Measurements reported in BindingDB's records for doi:10.7270/Q2T72FVT (University of Pittsburgh, 2007).

The compounds below were run against Serine/threonine-protein kinase PLK1 (Homo sapiens, UniProt P53350) (assay: Plk1 polo box domain binding inhibitors, dose response, biochemical, fluorescence polarization (AID 877)).
Serine/threonine-protein kinase PLK1, sequence (P53350 whole entry, the tested form may be a part): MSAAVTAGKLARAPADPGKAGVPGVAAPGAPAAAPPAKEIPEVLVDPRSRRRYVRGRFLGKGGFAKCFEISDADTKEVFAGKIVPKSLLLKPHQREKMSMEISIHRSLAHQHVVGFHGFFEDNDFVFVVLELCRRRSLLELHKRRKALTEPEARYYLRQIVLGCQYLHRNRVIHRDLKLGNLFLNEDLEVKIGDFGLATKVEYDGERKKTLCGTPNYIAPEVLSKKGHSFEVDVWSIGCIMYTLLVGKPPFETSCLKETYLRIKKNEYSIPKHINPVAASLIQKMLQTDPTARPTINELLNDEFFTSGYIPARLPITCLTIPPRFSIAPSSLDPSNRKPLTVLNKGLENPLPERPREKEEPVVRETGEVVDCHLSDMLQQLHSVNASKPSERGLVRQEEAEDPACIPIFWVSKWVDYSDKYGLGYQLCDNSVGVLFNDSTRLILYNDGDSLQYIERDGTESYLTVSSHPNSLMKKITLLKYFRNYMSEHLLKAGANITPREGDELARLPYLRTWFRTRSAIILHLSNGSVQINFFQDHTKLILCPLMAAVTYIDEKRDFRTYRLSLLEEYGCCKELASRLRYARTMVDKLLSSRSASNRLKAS
For Cn1c(=O)c(NCCO)c2c3c(cccc31)C(=O)c1ccccc1-2 [1-(2-Hydroxy-ethylamino)-3-methyl-3H-naphtho[1,2,3-de]quinoline-2,7-dione], the IC50 was 1.81 µM.
CCC(Sc1nc2nnc(C)c-2c(N)n1-c1cccc(Cl)c1)C(=O)NCCOC (configuration not stated) [2-[4-amino-5-(3-chlorophenyl)-3-methylpyrazolo[3,4-d]pyrimidin-6-yl]sulfanyl-N-(2-methoxyethyl)butanamide] gave an IC50 greater than 50 µM.
For O=C1Nc2ccc([N+](=O)[O-])cc2C1(O)N1CCCCC1 (configuration not stated) [3-hydroxy-5-nitro-3-(1-piperidinyl)-1,3-dihydro-2H-indol-2-one], the IC50 was greater than 50 µM.
Compound O=C1C(=C2C(=O)c3ccccc3C2=O)Nc2ccccc21 [MLS000071738] has an IC50 greater than 50 µM.
Compound NC(=O)C1CCN(C2=C(Cl)C(=O)c3ccccc3C2=O)CC1 [SMR000180199] has an IC50 of 33.3 µM.
Work on O=C(Cc1ccc(Cl)cc1)NCCN1CCCC1 [2-(4-Chloro-phenyl)-N-(2-pyrrolidin-1-yl-ethyl)-acetamide] yielded an IC50 greater than 50 µM.
CC(C)OCCCNC(=O)c1ccc(NC(=O)C2CCCO2)cc1 (configuration not stated) [MLS000086701] was tested, and the IC50 was greater than 50 µM.
Compound CCCSc1nc(N2CCOCC2)c2c(c1C#N)CCCC2 [1-(4-morpholinyl)-3-(propylthio)-5,6,7,8-tetrahydroisoquinoline-4-carbonitrile] has an IC50 greater than 50 µM.
COc1ccc(Cn2c(=O)sc3ccccc32)cc1 [3-(4-Methoxy-benzyl)-3H-benzothiazol-2-one] was tested, and the IC50 was greater than 50 µM.
CCn1ccc(C(=O)Nc2ccc(N(C)C(C)=O)cc2)n1 [MLS000043435] showed an IC50 greater than 50 µM.
With O=C(O)C1CCCCC1C(=O)Nc1ccc2c(c1)OCCO2 (configuration not stated) [2-(2,3-dihydro-1,4-benzodioxin-6-ylcarbamoyl)cyclohexane-1-carboxylic acid] the IC50 was greater than 50 µM.
For Cc1oc2c(c1C(=O)c1ccccc1)C(=O)C(=O)c1ccccc1-2 [2-methyl-3-(phenylcarbonyl)benzo[g][1]benzofuran-4,5-dione], the IC50 was 43.6 µM.
Work on COC(=O)c1ccccc1NC1=CC(=NS(=O)(=O)c2cccs2)c2ccccc2C1=O [methyl 2-[[(4E)-1-oxidanylidene-4-thiophen-2-ylsulfonylimino-naphthalen-2-yl]amino]benzoate] yielded an IC50 greater than 50 µM.
For Cc1cccc2[nH]c3c(N4CCN(C(=O)c5ccco5)CC4)ncnc3c12 [SMR000148910], the IC50 was greater than 50 µM.
O=C(NC1(C(F)(F)F)NC(=O)N(CC2CCCCC2)C1=O)c1ccco1 (configuration not stated) [MLS000040678] gave an IC50 greater than 50 µM.
O=C1CCC(C(=O)O)(c2ccccc2)C1 (configuration not stated) [3-Oxo-1-phenyl-cyclopentanecarboxylic acid] was tested, and the IC50 was greater than 50 µM.
O=C(CN1C(=O)COc2ccccc21)NCc1ccc(C(=O)O)cc1 [4-[[2-(3-oxidanylidene-1,4-benzoxazin-4-yl)ethanoylamino]methyl]benzoic acid] showed an IC50 greater than 50 µM.
O=C(CC1C(=O)NCCN1C(=S)Nc1ccccc1)Nc1ccc2c(c1)OCCO2 (configuration not stated) [2-[1-(anilinocarbonothioyl)-3-oxo-2-piperazinyl]-N-(2,3-dihydro-1,4-benzodioxin-6-yl)acetamide] was tested, and the IC50 was greater than 50 µM.
CCC(=O)Nc1ccc(-c2nnc(SCC(=O)Nc3nccs3)n2C)cc1 [MLS000076456] gave an IC50 greater than 50 µM.
Compound O=C(NC(NC(=S)Nc1ccc(Cl)cc1Cl)C(Cl)(Cl)Cl)c1cccc([N+](=O)[O-])c1 (configuration not stated) [3-nitro-N-[2,2,2-trichloro-1-({[(2,4-dichlorophenyl)amino]carbonothioyl}amino)ethyl]benzamide] has an IC50 greater than 50 µM.
In the case of COc1ccc(S(=O)(=O)N(C)CC(=O)Nc2ccccc2C(F)(F)F)cc1 [2-[(4-methoxyphenyl)sulfonyl-methyl-amino]-N-[2-(trifluoromethyl)phenyl]acetamide], the IC50 is reported as greater than 50 µM.
Cc1nc2cccc(C)n2c(=O)c1Cl [3-chloranyl-2,6-dimethyl-pyrido[1,2-a]pyrimidin-4-one] showed an IC50 greater than 50 µM.
In the case of CC(C)Nc1nnc(SCC(=O)c2c(N)n(Cc3ccccc3)c(=O)n(C)c2=O)s1 [6-amino-1-benzyl-3-methyl-5-[2-[[5-(propan-2-ylamino)-1,3,4-thiadiazol-2-yl]sulfanyl]acetyl]pyrimidine-2,4-dione], the IC50 is reported as greater than 50 µM.
In the case of O=C(CN1C(=O)c2ccccc2C1=O)N1CCN(c2nnc(-c3ccccc3)c3ccccc23)CC1 [2-[2-keto-2-[4-(4-phenylphthalazin-1-yl)piperazino]ethyl]isoindoline-1,3-quinone], the IC50 is reported as greater than 50 µM.
Compound CC(C)(C)NC(=O)CC(CC(=O)O)c1ccccc1 (configuration not stated) [5-(tert-butylamino)-5-keto-3-phenyl-valeric acid] has an IC50 greater than 50 µM.
In the case of CCC(C)c1ccc(NC(=O)C2CC2)cc1 (configuration not stated) [MLS000110184], the IC50 is reported as greater than 50 µM.
Work on CC(C)N(Cc1cc2ccccc2[nH]c1=O)C(=O)c1cccnc1 [N-[(2-oxo-1H-quinolin-3-yl)methyl]-N-propan-2-ylpyridine-3-carboxamide] yielded an IC50 greater than 50 µM.
CCCc1nc2sc3c(c2c(=O)n1NC(=O)CCC(=O)O)CCCC3 [4-keto-4-[(4-keto-2-propyl-5,6,7,8-tetrahydrobenzothiopheno[2,3-d]pyrimidin-3-yl)amino]butyric acid] was tested, and the IC50 was greater than 50 µM.
CCc1nc2cc(Cl)c(Cl)cc2[nH]1 [MLS000064722] was tested, and the IC50 was greater than 50 µM.
O=C(NCCc1ccccc1)/C(=C\c1ccc([N+](=O)[O-])cc1)NC(=O)c1ccccc1 [MLS000575866] was tested, and the IC50 was greater than 50 µM.
O=C(CNS(=O)(=O)c1ccc(Br)s1)N1CCCC1 [5-bromanyl-N-(2-oxidanylidene-2-pyrrolidin-1-yl-ethyl)thiophene-2-sulfonamide] showed an IC50 greater than 50 µM.
Cc1cc(C)n(-c2nnc3n2N=C(c2ccccc2)CS3)n1 [3-(3,5-dimethyl-1-pyrazolyl)-6-phenyl-7H-[1,2,4]triazolo[3,4-b][1,3,4]thiadiazine] was tested, and the IC50 was greater than 50 µM.
With CS(=O)(=O)N1CCN(C/C=C/c2ccccc2)CC1 [1-(methylsulfonyl)-4-(3-phenyl-2-propen-1-yl)piperazine] the IC50 was greater than 50 µM.
For C=CCn1c2ccccc2c2nnc(SCc3ccc4nonc4c3)nc21 [5-[(5-prop-2-enyl-[1,2,4]triazino[5,6-b]indol-3-yl)sulfanylmethyl]-2,1,3-benzoxadiazole], the IC50 was greater than 50 µM.
For O=C1CN(c2ccc(Br)cc2)C(=O)N1CC(=O)N1CCCc2ccccc21 [1-(4-bromophenyl)-3-[2-(3,4-dihydro-1(2H)-quinolinyl)-2-oxoethyl]-2,4-imidazolidinedione], the IC50 was greater than 50 µM.
COc1ccc(Nc2oc(-c3ccccc3Cl)nc2C#N)cc1 [2-(2-chlorophenyl)-5-(4-methoxyanilino)-1,3-oxazole-4-carbonitrile] gave an IC50 greater than 50 µM.
CCOC(=O)Cc1csc(NC(=O)CSc2nnc(-c3ccc(F)cc3)o2)n1 [(2-{2-[5-(4-Fluoro-phenyl)-[1,3,4]oxadiazol-2-ylsulfanyl]-acetylamino}-thiazol-4-yl)-acetic acid ethyl ester] showed an IC50 greater than 50 µM.
COc1ccccc1C1SCCN1S(=O)(=O)c1cccc(C(F)(F)F)c1 (configuration not stated) [2-(2-Methoxy-phenyl)-3-(3-trifluoromethyl-benzenesulfonyl)-thiazolidine] was tested, and the IC50 was greater than 50 µM.
In the case of COc1cc(S(=O)(=O)N2CCCCCC2)ccc1-n1cnnn1 [1-(3-Methoxy-4-tetrazol-1-yl-benzenesulfonyl)-azepane], the IC50 is reported as greater than 50 µM.
With O=[N+]([O-])c1ccc(N2CCNCC2)cc1NCC1CCCO1 (configuration not stated) [(2-nitro-5-piperazino-phenyl)-(tetrahydrofurfuryl)amine] the IC50 was greater than 50 µM.
In the case of CCc1noc(C)c1C(=O)N1CCOCC1 [(3-ethyl-5-methyl-1,2-oxazol-4-yl)-morpholin-4-yl-methanone], the IC50 is reported as greater than 50 µM.
CC(=O)N(N=C1Sc2ccccc2C1=O)c1ccccc1C [N-(2-methylphenyl)-N-[(3-oxo-1-benzothiophen-2-ylidene)amino]acetamide] was tested, and the IC50 was 37.3 µM.
Cc1[nH]n2c(=O)cc(-c3ccc([N+](=O)[O-])cc3)nc2c1-c1ccccc1 [MLS000547439] gave an IC50 greater than 50 µM.
CCC(=O)N1CCN(c2ccc(NC(=O)c3ccc4c(c3)OCO4)cc2)CC1 [Benzo[1,3]dioxole-5-carboxylic acid [4-(4-propionyl-piperazin-1-yl)-phenyl]-amide] gave an IC50 greater than 50 µM.
In the case of CN1C(=O)N(C)C(=O)C2(Sc3ccccc3C2=O)C1=O [1',3'-dimethylspiro[benzothiophene-2,5'-hexahydropyrimidine]-2',3,4',6'-diquinone], the IC50 is reported as greater than 50 µM.
With COc1ccc(CC2NCCC3(O)CCCCC23)cc1 (configuration not stated) [1-(4-Methoxy-benzyl)-octahydro-isoquinolin-4a-ol] the IC50 was greater than 50 µM.
With CCN1C(=O)/C(=C/c2nc3ccccc3c(=O)n2-c2ccccc2)c2ccccc21 [2-[(1-ethyl-2-oxo-1,2-dihydro-3H-indol-3-ylidene)methyl]-3-phenyl-4(3H)-quinazolinone] the IC50 was greater than 50 µM.
Work on Cc1cccc(-n2c(CCn3nc(C)c([N+](=O)[O-])c3C)n[nH]c2=S)c1 [3-(2-{4-nitro-3,5-dimethyl-1H-pyrazol-1-yl}ethyl)-4-(3-methylphenyl)-5-sulfanyl-4H-1,2,4-triazole] yielded an IC50 greater than 50 µM.
CC1CCCC(NC2CCCCNC2=O)C1 (configuration not stated) [3-[(3-methylcyclohexyl)amino]-2-azepanone] gave an IC50 greater than 50 µM.
With Cc1ccc2c(c1)CC1(CN2C)C(=O)NC(=O)N(c2ccccc2C)C1=O (configuration not stated) [1',6'-dimethyl-1-(2-methylphenyl)spiro[1,3-diazinane-5,3'-2,4-dihydroquinoline]-2,4,6-trione] the IC50 was greater than 50 µM.
In the case of CC(=O)N1CCc2cc(Br)cc(S(=O)(=O)NCc3ccccn3)c21 [1-acetyl-5-bromo-N-(2-pyridinylmethyl)-2,3-dihydroindole-7-sulfonamide], the IC50 is reported as greater than 50 µM.
Work on O=C(Nc1cccn(Cc2c(Cl)cccc2Cl)c1=O)c1c(Cl)cccc1Cl [2,6-dichloro-N-[1-(2,6-dichlorobenzyl)-2-keto-3-pyridyl]benzamide] yielded an IC50 greater than 50 µM.
For Cc1ccccc1NS(=O)(=O)c1cc(C(=O)NCc2ccco2)ccc1C [MLS000052108], the IC50 was greater than 50 µM.
Compound COc1ccc2c3c(cccc13)NN=C2C [6-Methoxy-3-methyl-1H-benzo[de]cinnoline] has an IC50 greater than 50 µM.
Work on COC(=O)CNC(=O)C12CC3(C)CC(C)(CC(C)(C3)C1)C2 [2-[[oxo-(3,5,7-trimethyl-1-adamantyl)methyl]amino]acetic acid methyl ester] yielded an IC50 greater than 50 µM.
COc1cccc(OC)c1C(=O)N1CCN(c2ccccn2)CC1 [(2,6-dimethoxyphenyl)-(4-pyridin-2-ylpiperazin-1-yl)methanone] gave an IC50 greater than 50 µM.
Cc1nn(C(C)C(=O)N2CCCCC2)c(=O)c2c1sc1ccccc12 (configuration not stated) [2-(2-keto-1-methyl-2-piperidino-ethyl)-4-methyl-benzothiopheno[2,3-d]pyridazin-1-one] showed an IC50 greater than 50 µM.
